{"source": "patent US12661410B2", "about": "“Compounds for targeted degradation of RET” (C4 Therapeutics, Inc., priority 2020, dated 2026)", "key": {"phospho-SHC": {"system": "phospho-SHC", "assay": "phospho-SHC protein level in CR^2518 brain tumors (western blot)", "assay_type": "in vivo, mice", "details": "single IV dose 5 mg/kg or 30 mg/kg, at 5 hours", "protocol": "For intracranial PDX model CR^2518, tumors were first grown in stock mice, then tumor fragments were harvested and digested for cell suspension preparation. 5×10^5 CR^2518 cells in 4 μl PBS were injected intracranially over 5 min, 2.5 mm intraparenchymally, 2 mm lateral from and 0.5 mm anterior to the bregma for tumor development in female BALB/c nude mice. With the appearance of clinical signs (body weight loss, inactivity), mice were randomized into groups of 3, stratified to result in about equal average body weight, and dosing was initiated on Day 0.\nCompound 122 was formulated in 40% PEG400 and 60% of 10% hydroxypropyl beta cyclodextrin (HPPCD) in double distilled water, which was also used for the vehicle group. […] Tumor volume was measured in two dimensions using calipers, and volume (mm^3) was calculated using the formula: V=0.5 a×b^2 where a and b are the long and short diameters of the tumor in mm, respectively.\n3 tumors and plasma samples were collected per each time point sampled. For pharmacokinetic analysis, plasma and tumor samples were injected into LC/MS/MS system for quantitative analysis. […] Protein concentration was quantified using a Pierce™ BCA Protein Assay Kit, samples were reduced, and equal protein amounts were then loaded onto a western blot gel for analysis. […]"}, "[1]": {"assay": "Body weight of mice bearing CTG-0838 tumors", "assay_type": "in vivo", "details": "after 21 days of daily treatment (5 mg/kg IV or 30 mg/kg PO)", "protocol": "For PDX model CTG-0838, tumors were first grown in stock mice, then tumor fragments were harvested and inoculated into the left flank of female Athymic Nude-Foxn1nu mice for tumor development. Tumor volume and body weight were measured on designated days. Tumor volume was measured in two dimensions using a digital caliper, and volume (mm^3) was calculated using the formula: V=0.52 a×b^2 where a and b are the long and short diameters of the tumor in mm, respectively. Once tumors reached an average volume of 200-300 mm^3, the animals were divided randomly into groups of 3, stratified to result in about equal average tumor sizes in each treatment group, and dosing was initiated on Day 0.\nCompound 122 was administered once a day intravenously (IV) at 5 mg/kg or orally (PO) at 30 mg/kg for 21 days. Compound 122 was formulated in 40% PEG400 and 60% of 10% hydroxypropyl beta cyclodextrin (HPPCD) in double distilled water, which was also used for the vehicle group. Body weight and tumor volume were measured on a 2× weekly schedule. Data are represented as MTV±SEM."}, "RET (658-1114)": {"target": "T1, RET (658-1114) (Homo sapiens, UniProt P07949)", "T1 construct": "658-1114; expressed in transfected cells; host or cells: 293T.144 (293T cells, generated in-house)", "T1 sequence (P07949 658-1114)": "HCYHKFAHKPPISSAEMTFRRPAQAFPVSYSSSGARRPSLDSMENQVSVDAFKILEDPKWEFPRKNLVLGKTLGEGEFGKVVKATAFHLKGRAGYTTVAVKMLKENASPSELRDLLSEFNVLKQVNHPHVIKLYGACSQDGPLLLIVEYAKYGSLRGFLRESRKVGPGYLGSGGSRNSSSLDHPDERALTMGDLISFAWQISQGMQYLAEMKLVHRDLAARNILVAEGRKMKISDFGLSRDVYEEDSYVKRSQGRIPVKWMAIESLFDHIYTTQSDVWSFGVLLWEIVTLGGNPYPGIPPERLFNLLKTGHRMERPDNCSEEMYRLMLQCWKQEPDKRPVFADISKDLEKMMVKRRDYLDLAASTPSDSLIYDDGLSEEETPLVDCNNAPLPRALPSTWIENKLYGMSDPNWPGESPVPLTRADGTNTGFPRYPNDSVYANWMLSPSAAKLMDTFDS", "assay": "HiBiT-Degradation, RET wild-type degradation assay (Nano-Glo HiBiT Lytic), 293T.144 cells", "assay_type": "cell-based", "how_it_was_run": "(§1)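 HEK293T lines stably expressing HiBiT-tagged RET kinase domain (WT: 293T.144; G810R: 293T.165) were treated with degraders for 6 h in duplicate, 11-point half-log series from 10 μM top dose. Lysis with Nano-Glo HiBiT Lytic reagent, luminescence read; DC50 and Emax (% remaining protein) derived from dose-response curves.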"}, "RET(KD: 658-1114 G810R)": {"target": "T2, RET(KD: 658-1114 G810R) (Homo sapiens, UniProt P07949, G810R)", "T2 construct": "658-1114; expressed in transfected cells; host or cells: 293T.165 (293T cells, generated in-house)", "T2 sequence (P07949 658-1114 G810R)": "T1 sequence (P07949 658-1114) with G153R", "assay": "HiBiT-Degradation, RET G810R degradation assay (Nano-Glo HiBiT Lytic), 293T.165 cells", "assay_type": "cell-based", "how_it_was_run": "as §1"}}, "note": "Positions count from the first letter of the chain named.", "data": [{"smiles": "CCC1(C(=O)NC(C)C)CCN(c2ccc(-c3nc(-c4cnn([C@H]5CC[C@H](N6CCC(c7ccc(NC8CCC(=O)NC8=O)cc7F)CC6)CC5)c4)cn4ncc(C#N)c34)cn2)CC1", "note": "(single isomer, unassigned) [Compound 122, 1-(5-(3-cyano-6-(1-((1r, 4r)-4-(4-(4-((2,6-dioxopiperidin-3-yl)amino)-2-fluorophenyl)piperidin-1-yl)cyclohexyl)-1H-pyrazol-4-yl)pyrazolo[1,5-a]pyrazin-4-yl)pyridin-2-yl)-4-ethyl-N-isopropylpiperidine-4-carboxamide]", "values": [{"measurement": "reduction in phospho-SHC protein levels in brain tumors", "setting": "phospho-SHC", "result": "75-80%"}, {"measurement": "body weight loss", "setting": "[1]", "result": "No body weight loss"}, {"measurement": "293T.144 RET (658-1114) 6.0 hours (IP) [nM]", "setting": "RET (658-1114)", "result": "++++ (<50 nM = ++++)"}, {"measurement": "Emax", "setting": "RET (658-1114); 6.0 hours, % remaining protein, read-out: 293T.144 RET (658-1114) 6.0 hours (Emax)", "result": "< 30", "unit": "%"}, {"measurement": "DC50", "setting": "RET (658-1114); 6.0 hours, half-maximal degradation concentration, read-out: 293T.144 RET (658-1114) 6.0 hours (DC50)", "result": "< 50", "unit": "nM"}, {"measurement": "293T.165 RET(KD: 658-1114 G810R) 6.0 hours (IP) [nM]", "setting": "RET(KD: 658-1114 G810R)", "result": "++++ (<50 nM = ++++)"}, {"measurement": "Emax", "setting": "RET(KD: 658-1114 G810R); 6.0 hours, % remaining protein, read-out: 293T.165 RET(KD: 658-1114 G810R) 6.0 hours (Emax)", "result": "< 30", "unit": "%"}, {"measurement": "DC50", "setting": "RET(KD: 658-1114 G810R); 6.0 hours, half-maximal degradation concentration, read-out: 293T.165 RET(KD: 658-1114 G810R) 6.0 hours (DC50)", "result": "< 50", "unit": "nM"}]}]}
